Patent publication US10053422B2, “Compounds for the treatment of mTOR pathway related diseases” (Pitney Pharmaceuticals Pty Limited, priority 2012, dated 2018)
“Also recorded” adds a separate entry of the source. Like-named read-outs stand apart in the source and are kept apart here.

Columns and labels:
OVCAR-3 cells = experiment: SRB cell proliferation assay, OVCAR-3; type: cell-based, human
Method: (§1) Cell proliferation was assessed using the sulforhodamine B (SRB) assay. Cells seeded in 96-well plate (2,000-3,000 cell/well) were treated with MPL (0, 1, 5, 10, 25, 50 and 100 μmol/L) for 72 h. Cells were then fixed, washed and stained with 100 μl of 0.4% (w/v) SRB dissolved in 1% acetic acid. Unbound dye was removed by five washes with 1% acetic acid before air drying. Bound SRB was solubilized with 100 μl of 10 mM Tris base (pH 10.5) and the absorbance read at 570 nm. Exactly the same procedure was used to assess MPL-SO2. Both agents were dissolved in ethanol and diluted with media to give the final concentrations required for cell culture assays.

A2780 cells = experiment: SRB cell proliferation assay, A2780; type: cell-based, human
Method: as §1

T47-D cells = experiment: SRB cell proliferation assay, T47-D; type: cell-based; conditions: Homo sapiens, T47D
Method: as §1

[1] = system: PC-3 prostate cancer cells; experiment: SRB cell proliferation assay, PC-3; type: cell-based
Method: as §1

U87 cells (glioblastoma) = experiment: SRB cell proliferation assay, U87; type: cell-based; conditions: for IC50: Homo sapiens, U-87 MG
Method: as §1

OVCAR-3 or A2780 cells = experiment: Cell cycle analysis by flow cytometry; type: cell-based, human
Method: OVCAR-3 (FIG. 3a) or A2780 (FIG. 3b) cells were treated with MPL (0, 5, 10 and 25 μmol/L) for 48 hours. Propodium iodide stained cells were analysed for DNA content using flow cytometric analysis. The results (see table) are shown as a percentage of cells in G1, S and G2/M phases. Each value represents mean±SEM of 2 independent experiments.
OVCAR-3 or A2780 cells were treated with MPL (0, 5, 10, 25 μM) for 48 h and examined by flow cytometric analysis (FACS) after staining the cells with PI. The Fig. and data present MPL-induced change in cell distribution in various phases of the cell cycle, here shown as percentage of cells in G1, S and G2/M phases. Each value represents mean±SEM of 2 independent determinations.
The effect of MPL on the cell cycle was determined using standard flow cytometry analysis protocols and procedures. Briefly, 0.7×10^6 […] cells seeded in […] flasks and allowed to adhere overnight were treated with MPL for 24 or 48 h. Cells were collected with trypsinization and pooled with the cells floating in the medium. The cell suspensions were centrifuged, washed with PBS and fixed with methanol. Cells were then washed, resuspended in propodium iodide and ribonuclease A in PBS for 30 min at room temperature and analyzed by flow cytometry (Becton Dickinson FACSort).

OVCAR-3 tumors = experiment: s.c. OVCAR-3 xenograft growth in nude mice; type: in vivo, female nude mice
Method: 2.5 million log-phase growing OVCAR-3 cells were injected s.c. into the left flank of each mouse. Tumor growth was monitored by caliper measurements and tumor volumes were determined through measuring orthogonal diameters. Estimated tumor volume was calculated based on the formula ½ (Length×Width2), where width is the shorter of the two orthogonal measurements. Treatment was initiated 7 days post tumor cell injection before which, mice were randomized and assigned to treatment or the control group (6 per group). […] Control group were treated with the vehicle only.
Log-phase growing OVCAR-3 cells were injected s.c. into the left flank of each mouse. Tumor growth was monitored by caliper measurements and tumor volumes were determined through measuring orthogonal diameters. Estimated tumor volume was calculated based on the formula ½ (Length×Width2), where width is the shorter of the two orthogonal measurements. Treatment was initiated 7 days post tumor cell injection before which, mice were randomized and assigned to treatment or the control group (6 per group). […] Control group were treated with the vehicle only.
OVCAR-3 cells were injected s.c. into the left flank of each mouse. Tumor growth was monitored by caliper measurements and tumor volumes were determined of orthogonal diameters, and the estimated tumor volume was calculated based on the formula ½ (Length×Width2), where width is the shorter of the two orthogonal measurements. Treatment was initiated 7 days post tumor cell injection before which, mice were randomized and assigned to treatment or the control group (6 per group). […] Control group were treated orally with the vehicle only.
Mice were inoculated in the left flank with 2.5 million log-phase growing human OVCAR-3 cells. Tumor growth was monitored by caliper measurements and tumor volumes were determined through measuring orthogonal diameters. Estimated tumor volume was calculated based on the formula ½ (Length×Width2), where width is the shorter of the two orthogonal measurements. Treatment was initiated 7 days post tumor cell injection before which, mice were randomized and assigned to treatment or the control group (5-6 per group).
Female nude mice (6 weeks old) were purchased from Biological Resources (Faculty of Medicine, University of New South Wales). An institutional animal ethics approval covered all procedures carried out on mice. […] Animals were weighed once weekly while their tumor volumes were determined twice weekly. Tumor growth was monitored by caliper measurements of orthogonal diameters, and the estimated tumor volume was calculated based on the formula ½ (Length×Width^2), where width is the shorter of the two orthogonal measurements. Based on institutional ethics approval, mice were euthanized before the tumor volume reached 500 mm^3. Treatment was initiated on day 8 after tumor cell injection when mice were randomized and assigned to treatment or the control group (6 per group). Monepantel was suspended in sterile 0.5% (w/v) hydroperoxymethyl cellulose (HPMC). Drug was administered i.p. 3 times weekly at 25 or 50 mg/kg. Control group was treated with sterile vehicle (0.5% HPMC). Mice were treated for a period of 3 weeks. Twenty four hours post-last drug administration, mice were euthanized and their tumors excised and frozen at −80° C. until analysis.
In alternative experiments, treatment was initiated on day 8 post tumor cell inoculation when mice were randomized and assigned to one of MPL or vehicle treated groups (5-6 mice per group). MPL was suspended in hydroperoxy methylcellulose (0.5% w/v HPMC), sterilized by sonnicator and administered every other day either intraperitoneally (i.p) or orally as gavage (100 μL).

[2] = system: NF-κB signal transduction pathway in LPS-stimulated RAW 264.7 cells; experiment: NF-κB signal transduction in LPS-stimulated macrophages; type: cell-based
Text: LPS-stimulated RAW 264.7 cells macrophages were used as an in vitro model system for inflammation.

nicotinic receptors = experiment: MPL antiproliferative effect after pre-treatment with nicotinic agonists or antagonists; type: cell-based; conditions: MPL 5 μM, 72 h; 30 min pre-treatment
Method: Cells were pre-treated (30 min) with increasing concentrations of nicotine, carbachol or the receptor antagonists, atropine, mecamylamine, tubocurarine, and α-bungarotoxin. MPL (5 μM) was added and left in the cell culture incubator for 72 h. Each drug concentration was tested in quadruplicate and each experiment was repeated twice. Combine values (mean±SEM) are presented as % control.
In brief, MPL and MPL-SO2 were tested in vitro against a wide range of cancer cell-lines with extensively different disease characteristics. For further detailed studies, human ovarian cancer cell lines OVCAR-3 and A2780 were chosen. Additionally, normal human ovarian surface epithelial cells (HOSE) and were cultured in the presence of MPL (0, 5, 10, 25, 50 and 100 μM) for 72 h. Cell viability was assessed using Trypan blue assay (FIG. 9). Similarly, effect of MPL on the growth of normal epithelial, endothelial, embryonic and fetal cells were investigated (FIG. 10) while cell proliferation was assessed using the SRB assay (FIG. 11). Control (vehicle treated) cells were taken to present 100% proliferation and the MPL treated groups are expressed as percentage of control±SEM. Each drug concentration was tested in quadruplicate and each experiment was repeated at least twice. For statistical comparisons, each drug treated group is compared to the control group using Student's t test. […]

[3] = cited from earlier work

**Q.** For C[C@](C#N)(COc1cc(C#N)ccc1C(F)(F)F)NC(=O)c1ccc(SC(F)(F)F)cc1 [MPL, N-[(1S)-1-Cyano-2-(5-cyano-2-trifluoromethyl-phenoxy)-1-methyl-ethyl]-4-trifluoromethylsulfanyl-benzamide], which IC50 (OVCAR-3 cells; Homo sapiens, OVCAR-3, ovarian cancer, 72 h in vitro treatment, SRB assay (Table 1), read-out: IC50) is on record?
**A.** Its IC50 is 6.3 µM.

**Q.** And the IC50 (OVCAR-3 cells; OVCAR-3, human epithelial ovarian cancer (Table 3), read-out: IC50 μM OVCAR-3)?
**A.** The IC50 was 7.9 ± 0.9 µM.

**Q.** And the “potency of MPL-(R) compared with MPL-(S)” value (OVCAR-3 cells; results of Table 3)?
**A.** Its value is “equipotent”.

**Q.** And the IC50 (A2780 cells; A2780, human epithelial ovarian cancer (Table 3), read-out: IC50 μM A2780)?
**A.** The IC50 was 11.3 ± 0.9 µM.

**Q.** What about the IC50 (A2780 cells; Homo sapiens, A2780, ovarian cancer, 72 h, SRB assay (Table 1), read-out: IC50) of the same compound?
**A.** Its IC50 is 10 µM.

**Q.** And the IC50 (T47-D cells; breast cancer (Table 2), read-out: IC50 in suppressing proliferation)?
**A.** Its IC50 is 5.3 ± 0.003 µM.

**Q.** And the IC50 (T47-D cells; breast cancer, 72 h, SRB assay (Table 1), read-out: IC50)?
**A.** The IC50 was 5.7 µM.

**Q.** And the IC50 ([1]; PC-3, prostate cancer (Table 2), read-out: IC50 in suppressing proliferation)?
**A.** Its IC50 is 21 µM.

**Q.** What about the IC50 ([1]; PC-3, prostate cancer, 72 h, SRB assay (Table 1), read-out: IC50) of the same compound?
**A.** Its IC50 is 21.6 µM.

**Q.** And the “effect on PC-3 cells” value ([1]; chemo-resistant, androgen insensitive PC-3)?
**A.** Its value is “very effective”.

**Q.** And the IC50 (U87 cells (glioblastoma); U87, glioblastoma, 72 h, SRB assay (Table 1), read-out: IC50)?
**A.** Its IC50 is 26.2 µM.

**Q.** And the IC50 (U87 cells (glioblastoma); U87, glioma (Table 2), read-out: IC50 in suppressing proliferation)?
**A.** Its IC50 is 18 µM.

**Q.** And the “replication of U87 cells” value (U87 cells (glioblastoma); highly resistant to chemotherapy)?
**A.** The value was “profoundly suppressed”.

**Q.** What about the “percentage of cells in the G2-M phase, vehicle treated group versus treated group” value (OVCAR-3 or A2780 cells; 25 μM MPL) of the same compound?
**A.** Its value is “more than three times higher”.

**Q.** What about the cell cycle progression (OVCAR-3 or A2780 cells; concentration and time-dependent) of the same compound?
**A.** The cell cycle progression was “arrested in the G1 phase”.

**Q.** What about the “tumor growth, initial trial” value (OVCAR-3 tumors; 25 mg/kg i.p., three times weekly (trial with 2.5 or 25 mg/kg)) of the same compound?
**A.** The value was “particularly effective”.

**Q.** And the tumor growth (OVCAR-3 tumors; 50 mg/kg dose (both i.p. and oral), three times weekly)?
**A.** Its tumor growth is “profoundly retarding tumor growth”.

**Q.** What about the “tumor growth, second trial” value (OVCAR-3 tumors; 50 mg/kg i.p. (trial with 25 and 50 mg/kg)) of the same compound?
**A.** The value was “more effective in retarding tumor growth”.

**Q.** And the “doses at which anticancer effects are observed in animal models” value (OVCAR-3 tumors; animal models)?
**A.** Its value is 5 to 50 mg/kg.

**Q.** What about the tumor histology (OVCAR-3 tumors; tumor tissue from the in vivo trials) of the same compound?
**A.** Its tumor histology is “massive areas of tumor cell death; also recorded: extensive necrosis”.

**Q.** And the IKK phosphorylation [2]?
**A.** The IKK phosphorylation was “inhibitory effect”.

**Q.** What about the IL-6 expression [2] of the same compound?
**A.** The IL-6 expression was “down regulation of IL-6 expression”.

**Q.** What about the IκB-α phosphorylation [2] of the same compound?
**A.** The IκB-α phosphorylation was “inhibitory effect”.

**Q.** What about the “NF-κB p65 phosphorylation” value [2] of the same compound?
**A.** The value was “inhibitory effect”.

**Q.** And the NO expression [2]?
**A.** The NO expression was “abrogates NO expression”.

**Q.** What about the TGF-β expression [2] of the same compound?
**A.** The TGF-β expression was “down regulation of TGF-β expression”.

**Q.** And the NF-κB activation ([2]; immunocytochemistry and Western blot)?
**A.** Its NF-κB activation is “decreased NF-κB activation”.

**Q.** What about the “MPL-induced inhibition after pre-treatment with nicotinic agonists or antagonists” value (nicotinic receptors) of the same compound?
**A.** The value was “neither positively nor negatively affected”.

**Q.** What about the clinical tolerance ([3]; 1000 mg of MPL per kg of body weight per 24 hours, mammals) of the same compound?
**A.** The clinical tolerance was “well tolerated”.

**Q.** And the “dose tolerated by animals when used as an anthelmintic” value ([3]; animals)?
**A.** Its value is “up to 2000 mg/kg”.

**Q.** And the single-dose toxicity ([3]; single dose)?
**A.** Its single-dose toxicity is > 2000 mg per kg of body weight.
